Columns and labels:
Assay type in all cases: cell-based, rat
[1] = test system: co-cultured cortical (CTX-CoCul) cells; assay: Growth supporting effect on co-cultures with BMSCs (phase contrast microscopy); details: 24 h, FIG. 2
Experimental: (§1) Wistar rats (150-200 gm) were used to isolate bone marrow (BM). Rats were sacrificed and their femurs were removed aseptically. The bone marrow (BM) was flushed from the shaft of the bone by clipping of the epiphysial ends and flushing using a 26-gauge needle with ˜2 ml of Dulbecco's Modified Eagle's medium (DMEM) supplemented with 5% FBS, 1% penicillin/streptomycin solution, 1% sodium pyruvate and L-glutamine. The BM was then centrifuged for 8 minutes at 1000 rpm. Following centrifugation, cell pellet was collected and 1 ml of fresh DMEM was added. The cell viability was checked using trypan blue exclusion method. The cells were then divided into three equal parts. One part was co-cultured with freshly isolated hippocampal cells in T75 cm^2 flask, 2nd with freshly isolated cortical cells and the third portion (BM cells only) was cultured as a control. The cell density for co-cultures was set at 140,000 cells/ml for each type of culture. The cultured flasks were then incubated at 37° C. and 5% CO2. After 4-5 days, floating hematopoietic cells and dead debris/tissues of hippocampus and cortex were removed and bone marrow stromal cells (BMSCs) were recovered due to their tendency to adhere. Medium was replaced after every 3 to 4 days till cells became 80-90% confluent.
(§2) To evaluate the growth supporting effect of isoxylitones the hippocampal, cortical and co-cultured cells were plated in 6-well plates and treated with 25 μg/mL, 50 μg/mL, 75 μg/mL and 150 μg/mL doses of isoxylitones. Cells with no treatment were set as a control. The plates were incubated for 24 and 72 hrs in a humidified chamber at 37° C. in 5% CO2. To assess the morphology of the treated cells, images were captured and digitalized with Nikon TE-2000 inverted microscope equipped with phase-contrast optics to measure the difference of control group from treated group. The cells were observed carefully in order to check if they maintain their morphological characteristics after treatment with the compound. The doses which supported the maximum proliferation were used for proliferation assays i.e., AlamarBlue and BrdU assay.

[2] = test system: co-cultured hippocampal (HP-CoCul) cells; assay: as above; details: 24 h, FIG. 2
Experimental: as §1, §2

[3] = test system: hypoxic hippocampal cells; assay: In-vitro model of hypoxic pre-conditioning; details: 2 h hypoxia then treatment at various concentrations, vs positive control hypoxic cells, FIG. 7
Experimental: In-vitro model of hypoxic cells was established by hypoxia chamber, which contain 5% carbon dioxide, 1% oxygen and 94% nitrogen. Isolated cortical and hippocampal cells from 1-2 days old rat pups were cultured in 75 cm flask in DMEM medium, after culturing cells were plated on 96 well plate at 7000-8000 viable cells per well and incubated in hypoxia chamber for 2 hour at 37° C. for hypoxic conditioning or oxygen deprivation. Following hypoxic shock, medium was replaced with fresh complete medium. Only cells without hypoxia were kept in normal condition as a control group while untreated hypoxic cells were kept as a positive control cells. Following two hours hypoxia the treatment of isoxylitones at various doses was given to hypoxic cells and MTT assay was used to determine the viability of cells in all treated and control cells. The absorbance of the plate was read by spectrophotometer at 570 nm wavelength.

[4] = test system: Calretinin (CR); assay: Immunocytochemical analysis of primary cultured and cocultured cells; details: vs control
Experimental: (§3) Immuncytochemical analysis was performed for differentiation studies of primary cultures of cortex, hippocampus, and co-cultures (CoCul) in absence of growth factors and serum free medium.
(§4) The cultured cells of cortex, hippocampus, and co-cultured cells in the presence of serum free medium were plated in chamber slides at the density of 20,000 cells/mL and treated with a proliferative dose of isoxylitones, i.e., 150 μg/ml for 24 hrs at 37° C. and 5% CO2 to let the cells adhere on the bottom surface of the slide. Following incubation, the media was refreshed and the cells were immunolabelled as mentioned in table #2.1.
(§5) For immunostaining, the media was removed; cells were washed gently with 1 mL of 1×PBS. After removing 1×PBS, 4% formaldehyde was added and the slides were incubated for 20 minutes at room temperature to fix the cells. The fixative was aspirated followed by a three times rinse with 1 mL of 1×PBS. After washing, the blocking buffer (BSA having 3% normal goat serum, 0.2% tween-20 and 0.3% of Triton X-100 in 10×PBS) was added and the slides were kept at room temperature for an hour. Then, the cells were washed gently three times with 1×PBS on an orbital shaker and 300 μL of primary antibodies (dilution mentioned in table #2.1) were added to each slide and incubated overnight at 4° C. Following incubation, the cells were washed gently in PBS three times (5 minutes each wash) on an orbital shaker. Next secondary antibody (Table #2.1) in 3% normal serum or BSA was added to their respective chamber and incubated for 1 hour at room temperature in dark. Following incubation, the slides were washed with 1×PBS.
(§6) Diluted Dapi (1:1000) was added into each slide to counter stain the nucleus. After rinsing twice with distilled water, images were captured using the Nikon 90i with fluorescence microscopes (Nikon. Tokyo, Japan) equipped with Nuance Software version 3.1 (Caliper Life Sciences. Hopkinton, Mass.). The magnification used was 20×.
(§7) For quantification studies, ImageJ software (National Institutes of Health, USA) was used to digitalized the images. This software provides multiple imaging system data comparisons taking densitometry in consideration. Briefly, 5 different regions were randomly selected and the fluorescence intensity was quantified in cells and the background intensity of each image was subtracted from it, the residual particles were measured to represent expression of relevant protein. Cells or fields were counted and percentage intensity of protein expression was measured and means percentage intensity was calculated. Data from three individual experiments was obtained and expressed as means±SEM.

[5] = test system: GFAP; assay: as above; details: 24 h
Experimental: as §3, §4, §5, §6, §7

## CC(=O)C=C1C=C(C)CC(C)(C)C1 (mixture of isomers) [isoxylitones]
[1]
  number of proliferating cells: Marked increase
  variation in morphology: no significant variation in the morphology
[2]; HP-CoCul cells
  number of proliferating cells: Marked increase
  variation in morphology: no significant variation in the morphology
[2]; co-cultured cells
  rate of proliferation in hippocampus cells as compared to cortical cells: almost double
[3]
  recovery of hypoxic cells (phase-contrast morphology): Recovery of hypoxic cells clearly observed
[4]; (A) cortical and (B) CoCul-CTX cells, FIG. 14
  Calretinin (CR) fluorescent intensity: prominent increase in the fluorescent intensity of calretinin
[4]; (A) hippocampal and (B) CoCul-HP cells, FIG. 15
  CR expression (immunoreactivity): significant increase in CR expression
[5]; (A) cortical and (B) CoCul-CTX cells, vs vehicle control, FIG. 10
  GFAP expression (immunofluorescence): prominent increase of GFAP expression
[5]; (A) hippocampal and (B) CoCul-HP cells, 150 μg/ml, vs control, FIG. 11
  GFAP immunochemistry, intensity of images: No significant difference in intensity

— patent US11065211B2, “Isoxylitones mediated neurogenesis” (priority 2018, dated 2021)
